From publication PMC5267425, “Identification of small molecule modulators of HIV-1 Tat and Rev protein accumulation” (Retrovirology, 2017)
“And” between values parts separate entries of the source, which are not always exact repeats. Equal entries are not always repeated.

Tested on: cellular gene expression in HeLa rtTA HIV∆Mls cells
Settings: 9147791-treated cells, two replicates

For `Cc1cc(NCc2cccnc2)n2ncc(-c3ccc(Cl)cc3)c2n1` [Compound 791, 3-(4-chlorophenyl)-5-methyl-N-(3-pyridinylmethyl)pyrazolo[1,5-a]pyrimidin-7-amine], the ACER2 expression level (gene ACER2) was 0.80 and 0.82, the ADO expression level (gene ADO) was 10.11 and 9.67 and the AKIRIN2 expression level (gene AKIRIN2) was 37.74 and 36.76. The ALG5 expression level (gene ALG5) was 17.63 and 17.19, the ALKBH8 expression level (gene ALKBH8) was 2.78 and 2.65 and the ANKRD40 expression level (gene ANKRD40) was 18.60 and 17.61. For the same compound, the ANKRD50 expression level (gene ANKRD50) was 8.61 and 9.09, the AP3S2 expression level (gene AP3S2) was 6.99 and 6.84 and the ARL4D expression level (gene ARL4D) was 11.90 and 11.09. For the same compound, the ARMC10 expression level (gene ARMC10) was 25.33 and 26.90, the ARSJ expression level (gene ARSJ) was 5.86 and 6.05 and the ATG4B expression level (gene ATG4B) was 24.43 and 25.27. The ATP6V1B2 expression level (gene ATP6V1B2) was 44.15 and 44.20, the AUP1 expression level (gene AUP1) was 93.65 and 90.36 and the AVL9 expression level (gene AVL9) was 14.40 and 14.91. For the same compound, the AXIN1 expression level (gene AXIN1) was 20.61 and 19.36, the B4GALT5 expression level (gene B4GALT5) was 32.71 and 30.46 and the BCL7A expression level (gene BCL7A) was 4.81 and 5.05. The BICD1 expression level (gene BICD1) was 5.82 and 5.80, the BIVM expression level (gene BIVM) was 26.38 and 27.51 and the BMP2K expression level (gene BMP2K) was 8.20 and 7.95. The C1orf27 expression level (gene C1orf27) was 10.72 and 10.90, the C1orf103 expression level (gene C1orf103) was 11.43 and 11.72 and the C1orf131 expression level (gene C1orf131) was 8.80 and 9.06. For the same compound, the C2orf49 expression level (gene C2orf49) was 7.96 and 8.04, the C3orf19 expression level (gene C3orf19) was 6.85 and 6.46 and the C4orf27 expression level (gene C4orf27) was 19.50 and 20.20. The C5orf37 expression level (gene C5orf37) was 8.35 and 8.03, the C5orf45 expression level (gene C5orf45) was 14.96 and 13.97 and the C5orf51 expression level (gene C5orf51) was 28.44 and 30.27. For the same compound, the C7orf23 expression level (gene C7orf23) was 28.60 and 29.63, the C7orf25 expression level (gene C7orf25) was 13.24 and 13.90 and the C9orf6 expression level (gene C9orf6) was 11.84 and 11.91. For the same compound, the C9orf46 expression level (gene C9orf46) was 19.83 and 20.30, the C11orf57 expression level (gene C11orf57) was 12.07 and 11.50 and the C11orf73 expression level (gene C11orf73) was 35.63 and 36.75. The C12orf35 expression level (gene C12orf35) was 5.77 and 5.55, the C12orf65 expression level (gene C12orf65) was 14.51 and 14.73 and the C12orf73 expression level (gene C12orf73) was 7.32 and 7.68. For the same compound, the C13orf23 expression level (gene C13orf23) was 12.32 and 12.36, the C16orf72 expression level (gene C16orf72) was 10.69 and 10.57 and the C17orf80 expression level (gene C17orf80) was 10.34 and 10.65. For the same compound, the C18orf25 expression level (gene C18orf25) was 6.56 and 6.86, the C18orf45 expression level (gene C18orf45) was 4.86 and 5.04 and the C19orf55 expression level (gene C19orf55) was 5.99 and 6.29. The CCBL2 expression level (gene CCBL2) was 14.25 and 13.62, the CCDC25 expression level (gene CCDC25) was 31.76 and 30.83 and the CCDC92 expression level (gene CCDC92) was 12.03 and 11.64. The CCNJ expression level (gene CCNJ) was 2.94 and 2.91, the CDK4 expression level (gene CDK4) was 162.09 and 164.93 and the CDK17 expression level (gene CDK17) was 8.04 and 8.39. For the same compound, the CHCHD4 expression level (gene CHCHD4) was 19.84 and 19.36, the CHN2 expression level (gene CHN2) was 1.42 and 1.50 and the CLCN2 expression level (gene CLCN2) was 5.16 and 5.28. The COG1 expression level (gene COG1) was 10.28 and 10.86, the COX19 expression level (gene COX19) was 6.58 and 7.00 and the CREB1 expression level (gene CREB1) was 5.06 and 4.95. For the same compound, the CSGALNACT2 expression level (gene CSGALNACT2) was 10.98 and 11.46, the CSNK2A1 expression level (gene CSNK2A1) was 37.86 and 40.21 and the CSRNP2 expression level (gene CSRNP2) was 6.76 and 6.32. The CUEDC2 expression level (gene CUEDC2) was 42.63 and 44.50, the DCI expression level (gene DCI) was 60.10 and 62.67 and the DCLRE1A expression level (gene DCLRE1A) was 9.19 and 9.37. For the same compound, the DDB2 expression level (gene DDB2) was 110.42 and 109.59, the DDX50 expression level (gene DDX50) was 29.08 and 28.13 and the DENND4B expression level (gene DENND4B) was 17.80 and 17.11. For the same compound, the DET1 expression level (gene DET1) was 3.28 and 3.58, the DGKQ expression level (gene DGKQ) was 6.10 and 5.97 and the DLG4 expression level (gene DLG4) was 6.58 and 6.74. For the same compound, the DNAJB14 expression level (gene DNAJB14) was 5.32 and 5.63, the DNASE2 expression level (gene DNASE2) was 67.31 and 73.16 and the DYM expression level (gene DYM) was 17.92 and 17.95. The EDEM1 expression level (gene EDEM1) was 13.02 and 13.54, the EIF2S3 expression level (gene EIF2S3) was 260.44 and 268.10 and the EPRS expression level (gene EPRS) was 87.21 and 89.05. The ESCO1 expression level (gene ESCO1) was 5.82 and 5.63, the ESRRA expression level (gene ESRRA) was 58.60 and 54.56 and the ETV6 expression level (gene ETV6) was 3.21 and 3.17. For the same compound, the FAIM3 expression level (gene FAIM3) was 2.34 and 2.22, the FAM83G expression level (gene FAM83G) was 15.73 and 15.43 and the FAM102A expression level (gene FAM102A) was 15.44 and 14.97. For the same compound, the FAM107B expression level (gene FAM107B) was 26.06 and 26.60, the FAM119B expression level (gene FAM119B) was 5.44 and 5.43 and the FAM176B expression level (gene FAM176B) was 1.37 and 1.42. For the same compound, the FAM179B expression level (gene FAM179B) was 3.35 and 3.46, the FAR1 expression level (gene FAR1) was 21.55 and 22.22 and the FBXO22 expression level (gene FBXO22) was 18.71 and 19.58. For the same compound, the FBXW4 expression level (gene FBXW4) was 11.10 and 10.83, the FEM1C expression level (gene FEM1C) was 5.87 and 6.20 and the FEZ2 expression level (gene FEZ2) was 28.49 and 26.84. The FLCN expression level (gene FLCN) was 15.28 and 15.93, the FLYWCH1 expression level (gene FLYWCH1) was 20.36 and 21.57 and the FOSL2 expression level (gene FOSL2) was 35.73 and 35.26. The FOXF1 expression level (gene FOXF1) was 7.56 and 7.55, the FOXJ2 expression level (gene FOXJ2) was 9.27 and 9.86 and the FXYD5 expression level (gene FXYD5) was 112.40 and 117.32. For the same compound, the GATA5 expression level (gene GATA5) was 1.79 and 1.70, the GJD3 expression level (gene GJD3) was 4.71 and 4.56 and the GNA13 expression level (gene GNA13) was 17.15 and 16.92. The GORAB expression level (gene GORAB) was 7.75 and 7.67, the GOSR1 expression level (gene GOSR1) was 11.79 and 11.45 and the GPC5 expression level (gene GPC5) was 9.86 and 10.11. For the same compound, the GPD1L expression level (gene GPD1L) was 13.45 and 13.69, the GTF2H3 expression level (gene GTF2H3) was 21.55 and 22.21 and the HAUS3 expression level (gene HAUS3) was 7.54 and 8.11. The HAUS4 expression level (gene HAUS4) was 59.72 and 63.77, the HDHD2 expression level (gene HDHD2) was 9.17 and 8.71 and the HECTD1 expression level (gene HECTD1) was 31.75 and 32.77. For the same compound, the HIF1A expression level (gene HIF1A) was 79.76 and 77.72, the HPS3 expression level (gene HPS3) was 15.09 and 14.61 and the HRSP12 expression level (gene HRSP12) was 13.91 and 14.84. The HSD17B1 expression level (gene HSD17B1) was 4.57 and 4.64, the IFNGR1 expression level (gene IFNGR1) was 18.57 and 18.18 and the INPP1 expression level (gene INPP1) was 8.36 and 7.77. For the same compound, the IPO13 expression level (gene IPO13) was 15.99 and 16.09, the IQCB1 expression level (gene IQCB1) was 10.15 and 11.00 and the KCTD1 expression level (gene KCTD1) was 4.57 and 4.58. The KCTD13 expression level (gene KCTD13) was 10.32 and 11.29, the KIAA0232 expression level (gene KIAA0232) was 9.33 and 9.86 and the KIAA0649 expression level (gene KIAA0649) was 25.63 and 26.16. The KIAA0753 expression level (gene KIAA0753) was 6.64 and 6.86, the KRR1 expression level (gene KRR1) was 19.83 and 18.92 and the LARS expression level (gene LARS) was 72.55 and 69.28. For the same compound, the LGTN expression level (gene LGTN) was 39.45 and 39.33, the LRP5L expression level (gene LRP5L) was 3.26 and 3.08 and the LRPPRC expression level (gene LRPPRC) was 66.45 and 68.25.
